The source of these data is ChEMBL document CHEMBL5584298, “Discovery of Cytotoxic Nitric Oxide-Releasing Piperlongumine Derivatives Targeting Wnt/β-Catenin in Colon Cancer Cells” (J Nat Prod, 2024).

Series [1] can be described thus: Cytotoxicity against human CCD-841CoN cells incubated for 72 hrs by MTT assay. It counts as toxicity, cell-based. (Tetrazolium dyes change colour on reduction, which living cells bring about.)
Series [2] relates to HCT-116. Description: Antiproliferative activity against human HCT-116 cells incubated for 24 to 72 hrs by MTT assay. It counts as functional, cell-based. The note with it: dose 0.1-100 µM, time 24-72 hrs.
In series [3] the test system is HCT-116. Description: Downregulation of phosphorylated GSK-3beta at Ser9 residue expression in human HCT-116 cells after 24 hrs by Western blotting analysis. It counts as functional, cell-based. The note with it: dose 0.5-2 µM. On the technique in general: Immunoblotting shows a protein as a band on a membrane.
In series [4] the test system is HCT-116. The series is described as follows: Antiproliferative activity against human HCT-116 cells incubated for 72 hrs by MTT assay. It counts as functional, cell-based. Particulars: HCT-116, 72 h.
The test system of series [5] is HCT-116. The series is described as follows: Downregulation of beta-catenin expression in human HCT-116 cells nucleus after 24 hrs by Western blotting analysis. Type of series: functional, subcellular. Particulars: dose 0.5-2 µM.
Series [6] relates to HCT-116. The series is described as follows: Antiproliferative activity against human HCT-116 cells incubated for 24 hrs by MTT assay. Type of series: functional, cell-based. The note with it: HCT-116, 24 h.
The test system of series [7] is A549. The series is described as follows: Antiproliferative activity against human A549 cells incubated for 24 hrs by MTT assay. It counts as functional, cell-based. Particulars: A549, 24 h.
Series [8] concerns HCT-116. The series is described as follows: Antiproliferative activity against human HCT-116 cells at 0.1 to 100 uM by MTT assay. It counts as functional, cell-based. Particulars: dose 0.1-100 µM, time 24-72 hrs, TDE = time-dependent effect.
Series [9] relates to A549. Description: Antiproliferative activity against human A549 cells at 0.1 to 100 uM by MTT assay. Type of series: functional, cell-based. Particulars: dose 0.1-100 µM, time 24-72 hrs, TDE = time-dependent effect.
For series [10], the system named is HCT-116. The series is described as follows: Downregulation of beta-catenin expression in human HCT-116 cells cytosol after 24 hrs by Western blotting analysis. It counts as functional, subcellular. The note with it: dose 0.5-2 µM.
Series [11] has as its system HCT-116. Description: Induction of NO production in human HCT-116 cells incubated for 6 hrs by Griess reagent based assay. Particulars: dose 1-10 µM. Type of series: functional, cell-based. On the technique in general: The Griess reaction detects nitrite, a stable product of nitric oxide.
Series [12] concerns A549. Description: Antiproliferative activity against human A549 cells incubated for 72 hrs by MTT assay. Type of series: functional, cell-based. Particulars: A549, 72 h.
Series [13] can be described thus: Selectivity index, ratio of IC50 for human CCD-841CoN cells to IC50 for human HCT-116 cells. Particulars: CCD-841CoN cells and HCT-116 cells, read-out: Ratio IC50. Type of series: toxicity.
Series [14] is described as follows: Cytotoxicity against human CCD-841CoN cells incubated for 24 hrs by MTT assay. Type of series: toxicity, cell-based.
In series [15] the test system is A549. Description: Antiproliferative activity against human A549 cells incubated for 24 to 72 hrs by MTT assay. It counts as functional, cell-based. Particulars: dose 0.1-100 µM, time 24-72 hrs.

In general, IC50 refers to the concentration that gives 50% inhibition. Read a high IC50 as weaker potency. `CCN(CC)/[N+]([O-])=N/OCOC(=O)CCCCOc1c(OC)cc(/C=C/C(=O)N2CCC=C(Cl)C2=O)cc1OC` displayed an IC50 at 72 h in [1] of 6.1 µM. Further, the Activity result in the series on HCT-116 [2] is “Dose-Dependent Effect”; in the series with HCT-116 [3], “Dose-Dependent Effect”; in the series on HCT-116 [5], “Dose-Dependent Effect”; in the series with HCT-116 [8], “Tde”; with A549 [9], “Tde”; in the series with HCT-116 [10], “Dose-Dependent Effect”. For the same compound, the Activity result with HCT-116 [11] and in the series on A549 [15] was “Dose-Dependent Effect” in each case. For the same compound, the IC50 in the series on HCT-116 [4] is 0.6 µM; in the series with HCT-116 [6] it was 0.9 µM; in the series on A549 [7], 0.8 µM; in the series on A549 [12], 0.6 µM. Further, the selectivity ratio in series [13] was more than 10. The compound also gave an IC50 at 24 h in [14] of 11.3 µM.

On to `COc1cc(/C=C/C(=O)NOC/N=[N+](\[O-])N2CCOCC2)cc(OC)c1OCCCCC(=O)OCO/N=[N+](\[O-])N1CCOCC1`, for which the Activity result is “Dose-Dependent Effect” in the series with HCT-116 [2]; “Tde” with HCT-116 [8]; “Tde” in the series on A549 [9]; “Dose-Dependent Effect” in the series on HCT-116 [11]; “Dose-Dependent Effect” with A549 [15]. Moreover, the half-maximal inhibitory concentration (IC50) in the series with HCT-116 [4] was found to be 28 µM; in the series with HCT-116 [6], 35.6 µM; with A549 [7] it was 18.4 µM; in the series with A549 [12], 10.6 µM.

In the case of `COc1cc(/C=C/C(=O)N2CCC=CC2=O)cc(OC)c1OC` [PIPLARTINE], the Activity result is “Dose-Dependent Effect” in the series with HCT-116 [2], “Tde” in the series with HCT-116 [8], “Tde” with A549 [9] and “Dose-Dependent Effect” in the series on A549 [15]. Besides, the IC50 stood at 8.6 µM with HCT-116 [4], 13.3 µM in the series with HCT-116 [6], 13.2 µM with A549 [7] and 7.2 µM in the series on A549 [12].

In the case of `CCN(CC)OC(=O)CCCCOc1c(OC)cc(/C=C/C(=O)N2CCC=C(Cl)C2=O)cc1OC`, the IC50 with HCT-116 [4] was found to be 2.8 µM; with HCT-116 [6], 6.3 µM.

Turning to `COc1cc(/C=C/C(=O)N2CCC=C(Cl)C2=O)cc(OC)c1OC`, the results for the IC50 in the series with HCT-116 [4], with HCT-116 [6] and in the series on A549 [7] were 6.2 µM, 11.4 µM and 10.2 µM, respectively.

For the compound `CCN(CC)/[N+]([O-])=N/CONC(=O)/C=C/c1cc(OC)c(OCCCCC(=O)OCO/N=[N+](\[O-])N(CC)CC)c(OC)c1`, the Activity entry in the series with HCT-116 [2] was “Dose-Dependent Effect”; in the series with HCT-116 [8] it was “Tde”; in the series on A549 [9], “Tde”; in the series with HCT-116 [11], “Dose-Dependent Effect”; with A549 [15] it was “Dose-Dependent Effect”. Also, the IC50 in the series on HCT-116 [4] was 3.9 µM; with HCT-116 [6], 5.4 µM; in the series with A549 [7], 5.7 µM; in the series on A549 [12], 3.4 µM.

Take `COc1cc(/C=C/C(=O)N2CCC=C(Cl)C2=O)cc(OC)c1OCCCCC(=O)OCO/N=[N+](\[O-])N1CCOCC1`: the Activity result in the series with HCT-116 [2] was “Dose-Dependent Effect”; in the series on HCT-116 [8], “Tde”; with A549 [9] it was “Tde”; with HCT-116 [11] it was “Dose-Dependent Effect”; in the series with A549 [15], “Dose-Dependent Effect”. Also, the IC50 in the series with HCT-116 [4] came to 0.7 µM; with HCT-116 [6] it was 1.1 µM; in the series with A549 [7], 1.1 µM; in the series on A549 [12] it was 0.7 µM.

`O=c1[nH]cc(F)c(=O)[nH]1` [FLUOROURACIL]: the figures for the IC50 in the series with HCT-116 [4], in the series on HCT-116 [6] and in the series on A549 [12] were 19.7 µM, 29.6 µM and 24.2 µM, respectively.
